Each compound was assayed against T1, Human 5-lipoxygenase (Homo sapiens, UniProt P09917) (assay: Activity of compounds against 5-LO enzyme (LTB4 measurement and/or fluorescence method)). Conditions: 5-LO, single concentration of 10 uM in duplicate.
T1 construct: purchased Cayman 60402; host or cells: insect cells
T1 sequence (P09917 1-674): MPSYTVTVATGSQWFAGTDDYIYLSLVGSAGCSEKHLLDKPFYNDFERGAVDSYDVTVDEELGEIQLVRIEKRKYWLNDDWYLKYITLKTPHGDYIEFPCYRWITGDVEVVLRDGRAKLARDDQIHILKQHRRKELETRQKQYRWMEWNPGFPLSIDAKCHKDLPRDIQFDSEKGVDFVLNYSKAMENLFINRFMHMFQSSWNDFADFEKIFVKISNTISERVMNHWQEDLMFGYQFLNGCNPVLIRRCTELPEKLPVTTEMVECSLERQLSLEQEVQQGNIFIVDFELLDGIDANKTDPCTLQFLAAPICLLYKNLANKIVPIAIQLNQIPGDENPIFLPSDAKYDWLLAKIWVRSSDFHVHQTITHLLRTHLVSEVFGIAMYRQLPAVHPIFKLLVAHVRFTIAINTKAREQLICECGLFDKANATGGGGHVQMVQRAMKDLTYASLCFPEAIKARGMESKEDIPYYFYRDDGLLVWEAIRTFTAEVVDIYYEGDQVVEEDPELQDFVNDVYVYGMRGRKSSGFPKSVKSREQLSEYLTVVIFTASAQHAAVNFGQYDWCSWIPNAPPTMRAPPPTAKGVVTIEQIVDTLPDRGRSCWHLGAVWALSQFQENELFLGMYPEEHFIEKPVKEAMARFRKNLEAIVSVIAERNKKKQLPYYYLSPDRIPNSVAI
Format: biochemical
Summary of the method: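 Two read-outs: LTB4 measured by EIA and/or LC/MS/MS with LTB4-d4 standard after 15 min RT compound preincubation with insect-cell 5-LO and a 5 min 37 °C reaction on 3 uM arachidonic acid (0.1 mM ATP, pH 7.4). The room-temperature fluorescence format used 20 uM H2DCFDA, 100 uM ATP, 3 uM arachidonic acid, 5 min; IC50 from 6/11-point curves.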

SMILES | inhibition at 10 µM [%]
O=C(NCc1ccc(-c2ccccc2)cc1)c1c(C(F)(F)F)nc2ccc(Cl)cn12 [compound 80, N-(Biphenyl-4-ylmethyl)-6-chloro-2-(trifluoromethyl)imidazo[1,2-a]pyridine-3-carboxamide] | < 40
Cc1nc2ccccn2c1C(=O)NCc1ccc(-c2ccccc2)cc1 [compound 20, N-(Biphenyl-4-ylmethyl)-2-methylimidazo[1,2-a]pyridine-3-carboxamide] | 40 to 69
Cc1nc2ccc(Cl)cn2c1C(=O)NCc1ccccc1 [compound 17, N-Benzyl-6-chloro-2-methylimidazo[1,2-a]pyridine-3-carboxamide] | < 40
Cc1nc2ccccn2c1C(=O)NCc1ccc(C(=O)O)cc1 [compound 26, 4-((2-Methylimidazo[1,2-a]pyridine-3-carboxamido)methyl)benzoic acid] | < 40
CCOC(=O)c1c(C)nc2cc(-c3ccccc3)ccn12 [compound 18, Ethyl 2-methyl-7-phenylimidazo[1,2-a]pyridine-3-carboxylate] | 40 to 69
CCc1nc2ccc(Cl)cn2c1C(=O)NCc1ccc(-c2ccc(Cl)cc2C(F)(F)F)cc1 [compound 100, 6-Chloro-N-((4′-chloro-2′-(trifluoromethyl)biphenyl-4-yl)methyl)-2-ethylimidazo[1,2-a]pyridine-3-carboxamide] | > 69
CCCc1nc2ccccn2c1C(=O)NCc1ccc(-c2ccccc2)cc1 [compound 46, N-(Biphenyl-4-ylmethyl)-2-propylimidazo[1,2-a]pyridine-3-carboxamide] | 40 to 69
Cc1nc2cc(C#N)ccn2c1C(=O)NCc1ccccc1 [compound 42, N-Benzyl-7-cyano-2-methylimidazo[1,2-a]pyridine-3-carboxamide] | < 40
COc1ccc(CNC(=O)c2c(C)nc3ccccn23)cc1 [compound 7, N-(4-Methoxybenzyl)-2-methylimidazo[1,2-a]pyridine-3-carboxamide] | < 40
CCc1nc2cc(Cl)ccn2c1C(=O)NCc1ccc(Cl)cc1 [compound 84, 7-Chloro-N-(4-chlorobenzyl)-2-ethylimidazo[1,2-a]pyridine-3-carboxamide] | 40 to 69
Cc1nc2ccccn2c1C(=O)NCC1CCNCC1 [compound 24, 2-Methyl-N-(piperidin-4-ylmethyl)imidazo[1,2-a]pyridine-3-carboxamide] | < 40
Cc1nc2ccccn2c1C(=O)O [compound 2, 2-Methylimidazo[1,2-a]pyridine-3-carboxylic acid] | < 40
CCc1nc2ccc(Cl)cn2c1C(=O)NCc1ccc(-c2ccc(C#N)cc2)cc1 [compound 97, 6-Chloro-N-((4′-cyanobiphenyl-4-yl)methyl)-2-ethylimidazo[1,2-a]pyridine-3-carboxamide] | < 40
CCc1nc2ccc(Cl)cn2c1C(=O)NCc1ccc(-c2ccccc2C(F)(F)F)cc1 [compound 98, 6-Chloro-2-ethyl-N-((2′-(trifluoromethyl)biphenyl-4-yl)methyl)imidazo[1,2-a]pyridine-3-carboxamide] | 40 to 69
Cc1nc2cc(Cl)ccn2c1C(=O)NCc1ccccc1 [compound 16, N-Benzyl-7-chloro-2-methylimidazo[1,2-a]pyridine-3-carboxamide] | < 40
CCc1nc2ccc(Cl)cn2c1C(=O)NCc1ccc(-c2cccc(C)c2)cc1 [compound 76, 6-Chloro-2-ethyl-N-((3′-methylbiphenyl-4-yl)methyl)imidazo[1,2-a]pyridine-3-carboxamide] | 40 to 69

Other lines, results leading:

inhibition at 10 µM [%] | SMILES
< 40 | CCc1nc2ccc(Cl)cn2c1C(=O)NCc1ccc(N2CCC(COC(C)C)CC2)cc1 [compound 276, 6-Chloro-2-ethyl-N-(4-(4-(isopropoxymethyl)piperidin-1-yl)benzyl)imidazo[1,2-a]pyridine-3-carboxamide]
< 40 | CCc1nc2cc(Cl)ccn2c1C(=O)NCc1ccc(N2CCN(C)CC2)cc1 [compound 108, 7-Chloro-2-ethyl-N-(4-(4-methylpiperazin-1-yl)benzyl)imidazo[1,2-a]pyridine-3-carboxamide]
40 to 69 | CCc1nc2ccc(Cl)cn2c1CNc1ccc(OC(F)(F)F)cc1 [compound 144, N-((6-Chloro-2-ethylimidazo[1,2-a]pyridin-3-yl)methyl)-4-(trifluoromethoxy)aniline]
40 to 69 | CCc1nc2ccc(Cl)cn2c1C(=O)NCc1ccc(Oc2ccc(OC(F)(F)F)cc2)cc1 [compound 131, 6-Chloro-2-ethyl-N-(4-(4-(trifluoromethoxy)phenoxy)benzyl)imidazo[1,2-a]pyridine-3-carboxamide]
< 40 | CCc1nc2cc(C)ccn2c1C(=O)NCc1ccc(OC(F)(F)F)cc1 [compound 280, 2-Ethyl-7-methyl-N-(4-(trifluoromethoxy)benzyl)imidazo[1,2-a]pyridine-3-carboxamide]
40 to 69 | CCc1nc2cc(Cl)ccn2c1C(=O)NCc1ccc(OCc2ccc(F)cc2)cc1 [compound 173, 7-Chloro-2-ethyl-N-(4-(4-fluorobenzyloxy)benzyl)imidazo[1,2-a]pyridine-3-carboxamide]
40 to 69 | CCc1nc2cc(Cl)ccn2c1C(=O)NCc1ccc(N2CCC(Oc3ccc(Cl)cc3)CC2)cc1 [compound 167, 7-Chloro-N-(4-(4-(4-chlorophenoxy)piperidin-1-yl)benzyl)-2-ethylimidazo[1,2-a]pyridine-3-carboxamide]
< 40 | CCc1nc2ccc(Cl)cn2c1C(=O)NCc1ccc(N2CCC(COC3CCCC3)CC2)cc1 [compound 285, 6-Chloro-N-(4-(4-(cyclopentyloxymethyl)piperidin-1-yl)benzyl)-2-ethylimidazo[1,2-a]pyridine-3-carboxamide]
< 40 | CCc1nc2ccccn2c1CN1CCC(Cn2cc(C(O)(CC)C(F)(F)F)nn2)CC1 (stereo not drawn) [compound 351, 2-(1-((1-((2-ethylimidazo[1,2-a]pyridin-3-yl)methyl)piperidin-4-yl)methyl)-1H-1,2,3-triazol-4-yl)-1,1,1-trifluorobutan-2-ol]
< 40 | CCc1nc2cc(OC)ccn2c1C(=O)NCc1ccc(N2CCOCC2)cc1 [compound 261, 2-Ethyl-7-methoxy-N-(4-morpholinobenzyl)imidazo[1,2-a]pyridine-3-carboxamide]
> 69 | CCc1nc2cc(Cl)ccn2c1C(=O)NCc1ccc(N2CCCCCC2)cc1 [compound 193, N-(4-(Azepan-1-yl)benzyl)-7-chloro-2-ethylimidazo[1,2-a]pyridine-3-carboxamide]
> 69 | CCc1nc2ccccn2c1C(=O)NCc1ccc(N2CCC(c3ccc(F)cc3)CC2)cc1 [compound 265, 2-Ethyl-N-(4-(4-(4-fluorophenyl)piperidin-1-yl)benzyl)imidazo[1,2-a]pyridine-3-carboxamide]
< 40 | CCc1nc2cc(Cl)c(Cl)cn2c1C(=O)NCc1ccc(N2CCN(c3ccc(F)cc3)CC2)cc1 [compound 180, 6,7-Dichloro-2-ethyl-N-(4-(4-(4-fluorophenyl)piperazin-1-yl)benzyl)imidazo[1,2-a]pyridine-3-carboxamide]
< 40 | CCc1nc2ccc(Cl)cn2c1C(=O)NCc1ccc(N2CCC(NC(=O)c3ccc(F)cc3)CC2)cc1 [compound 318, 6-chloro-2-ethyl-N-(4-(4-(4-fluorobenzamido)piperidin-1-yl)benzyl)imidazo[1,2-a]pyridine-3-carboxamide]
< 40 | CCc1nc2ccc(Cl)cn2c1C(=O)NCc1ccc(OCc2ccc(OC(F)(F)F)cc2)cc1 [compound 170]
< 40 | CCc1nc2ccc(Cl)cn2c1C(=O)N1CCC(Cn2cc(C(O)(CC)C(F)(F)F)nn2)CC1 (stereo not drawn) [compound 350, (6-chloro-2-ethylimidazo[1,2-a]pyridin-3-yl)(4-((4-(1,1,1-trifluoro-2-hydroxybutan-2-yl)-1H-1,2,3-triazol-1-yl)methyl)piperidin-1-yl)methanone]
40 to 69 | CCc1nc2cc(Cl)ccn2c1C(=O)NCc1ccc(-c2ccc(C(C)(C)C)cc2)cc1 [compound 114, N-((4′-tert-Butylbiphenyl-4-yl)methyl)-7-chloro-2-ethylimidazo[1,2-a]pyridine-3-carboxamide]
> 69 | CCc1nc2cc(Cl)ccn2c1C(=O)NCc1ccc(Nc2ccc(OC(F)(F)F)cc2)cc1 [compound 175, 7-Chloro-2-ethyl-N-(4-(4-(trifluoromethoxy)phenylamino)benzyl)imidazo[1,2-a]pyridine-3-carboxamide]

Same assay, conditions: 6 or 11 point dose response in duplicate

SMILES | IC50 [nM]
CCc1nc2cc(Cl)ccn2c1C(=O)N1CCC(Oc2ccc(OC(F)(F)F)cc2)CC1 [compound 380, (7-Chloro-2-ethylimidazo[1,2-a]pyridin-3-yl)(4-(4-(trifluoromethoxy)phenoxy)piperidin-1-yl)methanone] | < 1000
CCc1nc2ccc(Cl)cn2c1C(=O)NCc1ccc(-c2ccc(Cl)cc2C(F)(F)F)cc1 [compound 100, 6-Chloro-N-((4′-chloro-2′-(trifluoromethyl)biphenyl-4-yl)methyl)-2-ethylimidazo[1,2-a]pyridine-3-carboxamide] | 1000 to 20000
CCc1nc2cc(Cl)ccn2c1C(=O)NCc1ccc(N2CCCCCC2)cc1 [compound 193, N-(4-(Azepan-1-yl)benzyl)-7-chloro-2-ethylimidazo[1,2-a]pyridine-3-carboxamide] | > 20000
CCc1nc2ccccn2c1C(=O)NCc1ccc(N2CCC(c3ccc(F)cc3)CC2)cc1 [compound 265, 2-Ethyl-N-(4-(4-(4-fluorophenyl)piperidin-1-yl)benzyl)imidazo[1,2-a]pyridine-3-carboxamide] | < 1000
CCc1nc2cc(Cl)ccn2c1C(=O)NCc1ccc(Nc2ccc(OC(F)(F)F)cc2)cc1 [compound 175, 7-Chloro-2-ethyl-N-(4-(4-(trifluoromethoxy)phenylamino)benzyl)imidazo[1,2-a]pyridine-3-carboxamide] | 1000 to 20000

From patent US9029389B2 (Institut Pasteur Korea, priority 2011, dated 2015)
